As usually defined, the EC50 is the midpoint of the concentration-response curve.

We go through 1 compound from PubChem BioAssay AID1794823.

The target in this assay is Sodium- and chloride-dependent creatine transporter 1 (Homo sapiens) (UniProt P48029). Nature of the assay: SLC6A8 creatine transport substrate activity, dose response, cell-based, membrane potential dye, HEK-293 JumpIN, SLC6A8 overexpression (AID 1794823). As to conditions: HEK-293 JumpIN SLC6A8, FLIPR membrane potential fluorescence.
Chain of Sodium- and chloride-dependent creatine transporter 1 (Homo sapiens) (P48029 whole entry, looked up): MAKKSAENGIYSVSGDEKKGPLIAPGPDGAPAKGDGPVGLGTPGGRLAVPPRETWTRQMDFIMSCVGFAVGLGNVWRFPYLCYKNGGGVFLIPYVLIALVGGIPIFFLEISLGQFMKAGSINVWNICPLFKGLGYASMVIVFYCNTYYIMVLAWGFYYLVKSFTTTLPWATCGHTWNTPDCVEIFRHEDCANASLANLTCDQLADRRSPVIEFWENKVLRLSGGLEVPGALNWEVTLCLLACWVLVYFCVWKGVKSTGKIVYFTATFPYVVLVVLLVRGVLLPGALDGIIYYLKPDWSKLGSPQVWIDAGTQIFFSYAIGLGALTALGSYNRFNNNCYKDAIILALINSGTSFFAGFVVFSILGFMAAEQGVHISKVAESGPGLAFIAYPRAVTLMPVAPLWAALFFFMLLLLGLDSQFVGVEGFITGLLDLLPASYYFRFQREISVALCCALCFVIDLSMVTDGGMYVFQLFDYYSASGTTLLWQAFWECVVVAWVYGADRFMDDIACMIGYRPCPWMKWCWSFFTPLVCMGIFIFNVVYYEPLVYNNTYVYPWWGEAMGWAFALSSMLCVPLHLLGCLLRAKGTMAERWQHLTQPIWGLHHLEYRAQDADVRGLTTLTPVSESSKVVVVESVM

As to `CN(CC(=O)O)C(=N)N`, the EC50 was 5 µM.
